Data taken from patent publication US9102636B2, “Analgesic compounds, compositions, and uses thereof” (Galleon Pharmaceuticals, Inc., priority 2010, dated 2015).
pIC50: −log10 of the molar value. Where “and” joins values, the source holds several entries; their conditions need not be identical. Equal entries are not always repeated. Entries after “also recorded” stand apart in the source; their conditions may differ.

How the values were obtained:
[1] = L-012 assay: inhibition of SIN-1 generated peroxynitrite induced luminescence/fluorescence of L-012; type: biochemical; settings: 15 minute time point; average of three plates
Method: Luminol like compound “L-012” is a chemilumescent probe that is activated by the presence of a ROS and/or RNS such as peroxynitrite. In this assay L-012 was oxidized by the addition of 3-Morpholino-sydnonimine (“SIN-1”), a known peroxynitrite generator. The emitted fluorescence was directly proportional to the concentration of SIN-1. The compounds of the invention were then assessed for their ability to scavenge peroxynitrite by blocking the increase of peroxynitrite induced fluorescence. Concentrations of compound producing 50% inhibition of the fluorescence signal (IC50 values) were calculated by testing the compounds of the invention at various concentrations and averaging the IC50 of three plates.
The following solutions were added to white polystyrene, non-sterile 96-well plate (Costar #3912): 196 μL of 50 μM L-012; 2 μL of the test compound; and 24 μL of 500 mM SIN-1. Fresh stock of 50 μM L-012 in PBS pH 7.4 was made for each 96 well plate that was analyzed. The plates were read in a FlexStation3 (Molecular Devices) using the luminescent mode at 37° C. for 30 min, with a measurement every 30 seconds and an integration time of 100 msec.
Luminescence signal was recorded by the FlexStation3 kinetically at 37° C. for 30 minutes, with a measurement every 30 seconds and an integration time of 100 msec. The data in rows A and H were dropped from each plate to exclude the possibility of an ‘edge effect’. Thus, each test compound had 3 replicates per plate.

FCA induced edema = FCA induced edema (paw volume); type: in vivo, rat
Method: (§1) Compound 2 was evaluated in the rat Freund's complete adjuvant (FCA) model of inflammatory pain. The rat Freund's complete adjuvant (FCA) intraplantar model of inflammatory pain produces behaviors similar to those observed in patients and has been widely used to assess novel pharmacological treatments (Lam et al., 2008, J Ethnopharmacol. 120:44-50). The positive control was celecoxib (TRC, Montreal), and the negative control was vehicle (0.5% methyl cellulose, in phosphate buffered saline). […] The Hargreaves apparatus was obtained from Ugo Basile, Italy. The Freund's complete adjuvant was obtained from Sigma, St. Louis, and the electronic von frey was obtained from Stoelting, Ill. For this assay, paw withdrawal latency to a thermal stimulus was assessed using a radiant heat source (Ugo Basile, Italy) aimed at the plantar surface of the left hind paw (Hargreaves test; […] Paw withdrawal thresholds to a non-noxious tactile stimulus was assessed using an electronic von Frey apparatus that presented an increasing mechanical force to the plantar surface of the hind paw. Paw volume was measured by displacement of water and assuming a tissue density equal to that of water. […] Celecoxib (30 mg/kg p.o.) served as the positive control. […] After induction of anesthesia, the injection site was prepared in a sterile manner and 100 μl of a 50% suspension of FCA injected. After injection, animals were weighed and allowed to recover before being returned to their home cages. Statistical significance was determined on untransformed data using a two-way analysis of variance (Graphpad Prism, NC). Significant main effects were analyzed further by subsequent Bonferronni post-hoc test. The level of significance was set at p<0.05. Data are shown as mean±S.E.M. (with an asterisk to denote significance as compared to vehicle treated controls).

[2] = system: FCA induced tactile allodynia; assay: FCA induced tactile allodynia (electronic von Frey); type: in vivo, rat
Method: as §1

[3] = system: spinal nerve ligation induced tactile allodynia; assay: Spinal nerve ligation (SNL, Chung model) induced tactile allodynia (von Frey filaments); type: in vivo, rat; settings: for Paw withdrawal threshold: FIG. 24, fasted; for Paw withdrawal threshold / Paw threshold: individual animals; for Paw threshold: FIG. 25, gabapentin (positive control, 100 mg/kg i.p.)
ataxia (rotarod) = assay: Accelerating rotarod assay of ataxia (latency to fall); type: in vivo, rat; settings: for Latency to fall: Haloperidol 3 mg/kg p.o., maximum 300 seconds, individual animals
Method: Compound 2 was evaluated in a rat accelerating rotarod model of ataxia. Ataxia is a common clinical problem with CNS-active compounds and can often confound interpretation of efficacy in preclinical pain models. The rotarod assay of ataxia has been widely used to assess the side-effect liability of novel pharmacological treatments (Jones & Roberts, 1968, J. Pharm. […] The positive control was haloperidol (Sigma, St. […] Male Sprague-Dawley Rats (Harlan, Ill.) were 250-300 g at time of dosing. Rotarod was obtained from IITC, CA. To examine the potential effects of Compound 2 on motor performance, rats were tested on an accelerating rotarod (IITC, Ca). […] Rats received two timed training trials (averaged to give the reported baseline) on the first day, then 24 hr later rats were administered Compound 2 (30, 100 and 300 mg/kg, p.o.), haloperidol (3 mg/kg, p.o.), the positive control, or vehicle. […] Statistical significance was determined on untransformed data using a two-way analysis of variance (Graphpad Prism, NC). Significant main effects were analyzed further by subsequent Bonferronni post-hoc test. The level of significance was set at p<0.05. Data are shown as mean±S.E.M. (with an asterisk to denote significance as compared to vehicle treated controls).

Compound: CC1(C)SC(Nc2ccccc2O)=N[C@H]1C(=O)O [Compound 1, (S)-2-(2-hydroxyphenylamino)-thiazoline-5,5-dimethyl-4-carboxylic acid]
- pIC50 [1]: 6.57

Compound: COC(=O)[C@@H]1N=C(Nc2cc(Cl)ccc2O)SC1(C)C [Compound 20, (S)-2-(2-Hydroxy-5-chlorophenylamino)-thiazoline-5,5-dimethyl-4-carboxylic acid methyl ester]
- pIC50 [1]: 6.26

Compound: CC1(C)SC(Nc2cc(Cl)ccc2O)=N[C@H]1C(=O)O [Compound 21, (S)-2-(2-Hydroxy-5-chlorophenylamino)-thiazoline-5,5-dimethyl-4-carboxylic acid]
- pIC50 [1]: 6.59

Compound: Cc1ccc(O)c(NC2=N[C@@H](C(=O)O)C(C)(C)S2)c1 [Compound 24, (S)-2-(2-Hydroxy-5-methylphenylamino)-thiazoline-5,5-dimethyl-4-carboxylic acid]
- pIC50 [1]: 6.27

Compound: COc1ccc(NC2=N[C@@H](C(=O)O)C(C)(C)S2)c(O)c1 [Compound 26, (S)-2-(2-Hydroxy-4-methoxyphenylamino)-thiazoline-5,5-dimethyl-4-carboxylic acid]
- pIC50 [1]: 6.85

Compound: COC(=O)[C@@H]1N=C(Nc2ccc(OC)cc2O)SC1(C)C [Compound 27, (S)-2-(2-Hydroxy-4-methoxyphenylamino)-thiazoline-5,5-dimethyl-4-carboxylic acid methyl ester]
- pIC50 [1]: 6.52

Compound: Cc1ccc(-c2cc(C(F)(F)F)nn2-c2ccc(S(N)(=O)=O)cc2)cc1 [celecoxib, reference compound]
- Paw volume (FCA induced edema; 24 hrs post, Celecoxib (30 mg/kg p.o.), FIG. 20A): 2.8 mL and 3.1 mL and 2.7 mL and 3 mL and 2.2 mL
- Paw volume (FCA induced edema; 48 hrs post, Celecoxib (30 mg/kg p.o.), FIG. 20A): 2.7 mL and 2.8 mL and 2.2 mL
- Paw volume (FCA induced edema; FCA/celecoxib, 30 mg/kg p.o., 1 hr (D2), individual animals, 30 mg/kg): 2.3 mL (2×) and 2.6 mL and 2.4 mL (2×) and 2.7 mL (2×) and 2.5 mL
- Paw volume (FCA induced edema; FCA/celecoxib, 30 mg/kg p.o., 1 hr, individual animals, 30 mg/kg): 2.7 mL (3×) and 2.9 mL and 2.6 mL and 3.1 mL and 3 mL (2×)
- Paw volume (FCA induced edema; FCA/celecoxib, 30 mg/kg p.o., 3 hrs (D2), individual animals, 30 mg/kg): 2.4 mL and 2.5 mL (2×) and 2.3 mL (2×) and 2.7 mL and 2.6 mL and 2.8 mL
- Paw volume (FCA induced edema; FCA/celecoxib, 30 mg/kg p.o., 3 hrs, individual animals, 30 mg/kg): 2.7 mL (3×) and 2.9 mL (2×) and 2.8 mL and 3.1 mL and 2.6 mL
- Paw volume (FCA induced edema; FCA/celecoxib, 30 mg/kg p.o., Pre-Drug (D2), individual animals, 30 mg/kg): 2.4 mL and 2.6 mL (2×) and 2.3 mL (2×) and 2.5 mL and 2.7 mL and 2.8 mL
- Paw volume (FCA induced edema; FCA/celecoxib, 30 mg/kg p.o., Pre-Drug, individual animals, 30 mg/kg): 2.8 mL (3×) and 3.1 mL (2×) and 2.9 mL and 3 mL and 3.2 mL
- Paw volume (FCA induced edema; FCA/celecoxib, 30 mg/kg p.o., Pre-FCA (baseline), individual animals, 30 mg/kg): 1.7 mL (6×) and 1.8 mL and 1.9 mL
- Paw volume (FCA induced edema; Pre-FCA, Celecoxib (30 mg/kg p.o.) group, individual rats, FIG. 20A): 1.8 mL and 1.9 mL (2×) and 1.7 mL (2×) and 1.5 mL
- Paw withdrawl threshold ([2]; 60 (min post-dose), celecoxib 30 mg/kg p.o. 24 hours post-FCA): 29.9 g and 32.4 g and 19.8 g and 23.2 g and 30.9 g
- Paw withdrawl threshold ([2]; baseline (pre-FCA), celecoxib 30 mg/kg group, individual rats): 31.8 g (2×) and 39.4 g and 25.93 g and 36.6 g and 37.73 g

Compound: NCC1(CC(=O)O)CCCCC1 [gabapentin, reference compound]
- Paw withdrawal threshold ([3]; gabapentin 100 mg/kg i.p., 3 hrs (D1)): 15 g (4×) and 5.18 g and 3.67 g and 6.58 g and 5.56 g
- Paw withdrawal threshold ([3]; gabapentin 100 mg/kg i.p., 3 hrs (D3)): 15 g (3×) and 3.33 g and 11.69 g and 8.61 g and 6.58 g and 9.86 g
- Paw withdrawal threshold ([3]; gabapentin 100 mg/kg i.p., 5 hrs (D1)): 10.31 g and 5.56 g and 6.58 g (2×) and 1.99 g and 6.66 g and 7.94 g and 6.4 g
- Paw withdrawal threshold ([3]; gabapentin 100 mg/kg i.p., 5 hrs (D3)): 15 g (2×) and 4.4 g and 4.72 g and 2.37 g and 6.58 g and 7.31 g and 6.66 g
- Paw withdrawal threshold ([3]; gabapentin 100 mg/kg i.p., Pre-Drug (D1)): 6.64 g and 1.65 g and 1.33 g and 1.56 g and 2.81 g (2×) and 4.23 g and 5.04 g
- Paw withdrawal threshold ([3]; gabapentin 100 mg/kg i.p., Pre-Drug (D3)): 6.64 g and 1.56 g and 1.4 g and 1.65 g and 5.57 g and 3.55 g and 3.58 g and 2.81 g
- Paw withdrawal threshold ([3]; gabapentin 100 mg/kg i.p., Pre-Sx): 15 g
- Paw threshold ([3]; 1 wk, 100 mg/kg): 1.56 g (2×) and 6.58 g (2×) and 3.73 g and 2.2 g and 4.25 g and 1.4 g
- Paw threshold ([3]; 2 wks, 100 mg/kg): 0.99 g and 1.31 g and 3.13 g and 1.4 g (2×) and 2.81 g (3×)
- Paw threshold ([3]; Pre-Sx): 15 g
- reversal of SNL tactile allodynia, positive control ([3]; rat, gabapentin 100 mg/kg i.p., 3 and 5 hours after each administration): consistently produced a statistically significant reversal of allodynia; also recorded: statistically significant reversal of hyperalgesia
- development of SNL tactile allodynia, positive control dosed only on day of surgery ([3]; rat, gabapentin, FIG. 25): failed to alter the course of development of allodynia

Compound: O=C(CCCN1CCC(O)(c2ccc(Cl)cc2)CC1)c1ccc(F)cc1 [haloperidol, reference compound]
- Latency to fall (ataxia (rotarod); Baseline): 60 s and 38 s and 42.5 s and 59 s and 68 s and 48 s and 86 s and 62 s and 71 s and 80 s and 57 s
- Latency to fall (ataxia (rotarod); Post-Drug (1 hr)): 9 sec and 10 sec (2×) and 7 sec and 2 sec (2×) and 5 sec (2×) and 6 sec and 30 sec and 15 sec
- latency to fall, accelerating rotarod, positive control (ataxia (rotarod); rat, haloperidol 3 mg/kg p.o., 1 h post-administration): significant motor deficits; also recorded: substantial reduction in latency
